Source: patent publication US20090197906A1, “REVERSION OF MALIGNANT PHENOTYPE WITH 9-HYDROXY ELLIPTICINE DERIVATIVES” (priority 2006, published 2009)

Legend:
B16BL6 = assay: cloning assay in methylcellulose (colony formation); assay type: cell-based; settings: read-out: Inhibition of colony formation (methylcellulose) IC50
Protocol: (§1) Cells were embedded in complete culture medium supplemented with 0.8% methylcellulose (Methocel MC4000, Sigma), seeded in triplicate into 35-mm dishes (Greiner Bio-one Ref 627102, Dominique Dutscher) and incubated at 37° C. in a humidified 5% CO2 atmosphere. The number of cells seeded was 1000 cells per dish. After one to three weeks, according to cell lines, macroscopic clones were counted.

SK-N-MC = assay: as above; assay type: cell-based; settings: read-out: Inhibition of colony formation (methylcellulose) IC50
Protocol: as §1

NCI-H187 = assay: MTT cell proliferation assay; assay type: cell-based, human; settings: NCI-H187, viability 72 h
Protocol: (§2) Growth studies were performed using the [3-(4,5 dimethylthiazol-2-yl)-2,5-diphenyl-2H-tetrazolium bromide] (Sigma) calorimetric assay.
(§3) About 1500 to 5000 cells, according to the cell line, were seeded in a 96-well culture plate 24 hours before adding increasing concentrations of BA016DD537 or BA016FZ539. The plate was incubated at 37° C. for 3 days. 10 μl MTT stock solution (5 mg/ml in phosphate buffer saline) was added to 90 μl of complete medium in each well, the incubation was continued for 3 h at 37° C. 100 μl of lysis buffer (10% sodium dodecyl sulfate, 1% HCl 1N; pH 4.7) was added to each well, and the plate was incubated overnight. The absorbance was determined using an Integrated EIA Management System (Labsystem) at a wavelength of 570 nm. The proliferation rates were calculated from the OD readings using the untreated cells as 100%.
(§4) The SRB protein stain assay was compared with the tetrazolium (MTT) colorimetric assay for in vitro chemosensitivity testing of various human small cell lung cancer cell lines.

NCI-H446 = assay: MTT cell proliferation assay; assay type: cell-based, human; settings: NCI-H446, viability 72 h, mean +/− SEM
Protocol: as §2, §3, §4

NCI-H510 = assay: MTT cell proliferation assay; assay type: cell-based, human; settings: NCI-H510, viability 72 h
Protocol: as §2, §3, §4

B16F10 [1] = assay: SRB (sulforhodamine B) cell proliferation assay; assay type: cell-based, murine; settings: B16F10 (Example 11); read-out: IC50 (SRB Test-72 h)
Protocol: (§5) Growth studies were performed using both MTT and SRB calorimetric assay (Sigma). About 1500 B16F10 or 3000 pancreatic cells (MIA PaCa-2 and PANC1) were seeded in a 96-well culture plate before adding increasing concentrations of monomesylate or bimesylate.
(§6) The plates were incubated at 37° C. for 3 days and then were treated depending on SRB or MTT protocols (see material and methods).
(§7) In these two cases, the proliferation rates were calculated from the OD readings using the untreated cells as 100%.

B16F10 [2] = assay: cloning assay in methylcellulose (colony formation); assay type: cell-based, murine
Protocol: as §1
Cells were embedded in complete culture medium supplemented with 0.8% methyl-cellulose (Methocel MC4000, Sigma), seeded in triplicate into 35-mm dishes and incubated at 37° C. in a humidified 5% CO2 atmosphere. The number of cells seeded was 1000 cells per dish. After 9 days, macroscopic clones of murine melanoma cell line B16F10 were counted.

[3] = system: B16F10 cell pulmonary metastases; assay: antimetastatic activity, B16F10 pulmonary metastases after i.v. injection; assay type: in vivo, mice
Protocol: In order to assess the anti-invasive property, the effect of 2-(beta piperidino-2-ethyl)-9-hydroxyellipticinium methanesulfonate on this process has been tested.
100 μl of a B16F10 cellular suspension (4.10^5 cells) were injected using i.v. route into the retro-orbital sinus of the mice. The 2-(beta piperidino-2-ethyl)-9-hydroxyellipticinium methanesulfonate (BA016FZ539) solution was administrated i.v to mice 24 hours and 72 hours after cell injection at a dose of 5 mg/Kg (first experiment) and 7.5 mg/kg (second experiment). In control group, mice were injected iv with physiological serum. Seven days later, the mice were sacrificed, the lungs were excised and metastatic nodules were counted under a dissecting microscope.

B16F10 [4] = assay: MTT cell proliferation assay; assay type: cell-based, murine
Protocol: as §2, §3, §5, §6, §7

Melanoma B16 cells = assay: antitumor activity, i.p. grafted B16 melanoma, survival; assay type: in vivo, B6D2F1 mice
Protocol: Antitumor activity against B16 melanoma can be assessed in mice using i.p. graft of malignant cells followed by i.p. treatment. This type of protocol which by-pass various biodisponibility parameters gives information roughly on the maximal antitumor activity which can be expected for a given tumor.
Melanoma B16 cells (4×10^5) were injected in B6D2F1 mice using i.p. route at J0. Drugs, dissolved in sterile distilled water (0.5 ml) were injected daily using as well i.p. route from J1 to J9 at various concentrations. Control mice received distilled water only according the same protocol.
Treated and control mice were counted daily. TIC (mean survival of treated mice/mean survival of control mice) was calculated at J9.

[5] = system: B16BL6 melanoma cell line; assay: MTT cell viability, combination with retinoids; assay type: cell-based
Protocol: The ex vivo cell viability inhibition by BA016DD537 in the presence of the retinoids 13CRA and ATRA was tested against B16BL6 melanoma cell line using the 3-(4,5 dimethylthiazol-2-yl)-2,5-diphenyl-2H-tetrazolium bromide (MTT) calorimetric assay.
About 1000 cells were seeded in a 96-well culture plate 24 hours before adding increasing concentrations of BA016DD537, from 1 pM to 100 pM, in the absence or in the presence of 10 nM of retinoids. The plate was incubated at 37° C. for 3 days. 10 μl MTT stock solution (5 mg/ml in phosphate buffer saline) was added to 90 μl of complete medium in each well, the incubation was continued for 3 h at 37° C. 100 μl of lysis buffer (20% sodium dodecyl sulfate, 10 mM HCl, 1×PBS) was added to each well, and the plate was incubated overnight. The absorbance was determined using an Integrated EIA Management System (Labsystem) at a wavelength of 570 nm.

NIH 3T3 EF = assay: cloning assay in methylcellulose (colony formation); assay type: cell-based; settings: read-out: Inhibition of colony formation (methylcellulose) IC50
Protocol: as §1

Question: `CS(=O)(=O)[O-].Cc1c2cc[n+](CCN3CCCCC3)cc2c(C)c2c1[nH]c1ccc(O)cc12` [BA016FZ539, 2-(betapiperidino-2-ethyl)-9-hydroxyellipticinium methanesulfonate] was tested. Which IC50 (B16BL6) did it give?
Answer: The IC50 was 29 nM.

Question: What about the IC50 (SK-N-MC) of the same compound?
Answer: Its IC50 is 205 nM.

Question: And the IC50 (NCI-H187)?
Answer: The IC50 was 7.9 µM.

Question: What about the IC50 (NCI-H446) of the same compound?
Answer: Its IC50 is 9.8 µM.

Question: And the IC50 (NCI-H510)?
Answer: Its IC50 is 14.8 µM.

Question: What about the IC50 (B16F10 [1]) of the same compound?
Answer: The IC50 was 4300 nM.

Question: And the IC50 (B16F10 [2]; B16F10, clones counted after 9 days (Example 11), listed as Monomesylate, read-out: B16F10 Inhibition of colony formation IC50)?
Answer: Its IC50 is 67 nM.

Question: And the “Inhibition of pulmonary metastases development (% of control values)” value ([3]; Experiment 1, 5 mg/kg/inj. i.v. J1, J3, p = 0.0904)?
Answer: The value was 21% (p = 0.0904).

Question: What about the “Inhibition of pulmonary metastases development (% of control values)” value ([3]; Experiment 2, 7.5 mg/kg/inj. i.v. J1, J3, p = 0.3269) of the same compound?
Answer: Its value is 39.6% (p = 0.3269).

Question: And the IC50 (B16F10 [4]; B16F10 (Example 11), read-out: IC50 (MTT Test-72 h))?
Answer: Its IC50 is 2000 nM.

Question: How did the “T/C (%) (mean survival of treated mice/mean survival of control mice)” value (Melanoma B16 cells; 0.39 mg/kg/inj. i.p. daily J1 to J9) turn out when `Cc1c2cc[n+](CCN3CCCCC3)cc2c(C)c2c1[nH]c1ccc(O)cc12.[Cl-]` [BA016DD537, 2-(β-piperidinoethyl)-9-hydroxyellipticinium chloride] was run?
Answer: The value was 133%.

Question: What about the “T/C (%) (mean survival of treated mice/mean survival of control mice)” value (Melanoma B16 cells; 0.78 mg/kg/inj. i.p. daily J1 to J9) of the same compound?
Answer: The value was 149%.

Question: What about the “T/C (%) (mean survival of treated mice/mean survival of control mice)” value (Melanoma B16 cells; 1.56 mg/kg/inj. i.p. daily J1 to J9) of the same compound?
Answer: Its value is 168%.

Question: And the “T/C (%) (mean survival of treated mice/mean survival of control mice)” value (Melanoma B16 cells; 3.12 mg/kg/inj. i.p. daily J1 to J9)?
Answer: The value was 217%.

Question: What about the “T/C (%) (mean survival of treated mice/mean survival of control mice)” value (Melanoma B16 cells; 6.25 mg/kg/inj. i.p. daily J1 to J9) of the same compound?
Answer: The value was 196%.

Question: What about the “T/C (%) (mean survival of treated mice/mean survival of control mice)” value (Melanoma B16 cells; 7.5 mg/kg/inj. i.p. daily J1 to J9) of the same compound?
Answer: Its value is 210%.

Question: What about the “T/C (%) (mean survival of treated mice/mean survival of control mice)” value (Melanoma B16 cells; 10 mg/kg/inj. i.p. daily J1 to J9) of the same compound?
Answer: Its value is 87%.

Question: And the “antitumor activity against B16 melanoma (T/C>125% = significant)” value (Melanoma B16 cells; i.p. graft, i.p. treatment)?
Answer: Its value is “marked antitumor activity”.

Question: And the “decrease of dose when used in combination with retinoids for the same results” value ([5]; 100 nM alone vs 1 pM in the presence of ATRA 10 nM)?
Answer: The value was 100 000 fold.

Question: What about the “tumoral cell viability inhibition (MTT)” value ([5]; lower doses in the presence of 10 nM retinoids (13CRA, ATRA)) of the same compound?
Answer: Its value is “increased tumoral cell viability inhibition”.

Question: And the IC50 (NIH 3T3 EF)?
Answer: Its IC50 is 30 nM.

Question: What about the IC50 (B16F10 [2]; B16F10, read-out: Inhibition of colony formation (methylcellulose) IC50) of the same compound?
Answer: The IC50 was 35 nM.

Question: And the IC50 (B16F10 [4]; B16F10, 3 days, read-out: Cytotoxic effect (MTT) IC50)?
Answer: Its IC50 is 500 nM.
